Measured values: ChEMBL document CHEMBL5055678, “Structure-based drug design of novel and highly potent pyruvate dehydrogenase kinase inhibitors” (Bioorg Med Chem, 2021)

Legend:
[1] = target: T1, [Pyruvate dehydrogenase (acetyl-transferring)] kinase isozyme 4, mitochondrial (Homo sapiens, UniProt Q16654); assay: (§1) Inhibition of human recombinant PDHK4 co-complexed with porcine PDH using sodium pyruvate, coenzymeA and NAD as substrates preincubated with enzyme complex for 45 mins followed by substrates addition and further incubated for 90 mins in presence of ATP at Km concentration by spectrophotometric assay
Target sequence in this assay (Q16654 whole entry): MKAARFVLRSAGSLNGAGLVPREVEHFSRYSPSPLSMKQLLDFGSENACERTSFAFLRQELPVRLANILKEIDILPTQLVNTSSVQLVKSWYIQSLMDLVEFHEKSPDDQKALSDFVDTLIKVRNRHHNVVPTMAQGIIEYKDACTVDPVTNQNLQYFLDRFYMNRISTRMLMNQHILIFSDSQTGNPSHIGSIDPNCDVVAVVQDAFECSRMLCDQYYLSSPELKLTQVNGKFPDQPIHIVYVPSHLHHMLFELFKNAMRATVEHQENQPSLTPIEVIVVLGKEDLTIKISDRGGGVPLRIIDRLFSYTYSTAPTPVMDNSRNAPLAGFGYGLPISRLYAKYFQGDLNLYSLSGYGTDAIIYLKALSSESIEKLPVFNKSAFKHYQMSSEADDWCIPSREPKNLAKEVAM

[2] = target: [Pyruvate dehydrogenase (acetyl-transferring)] kinase isozyme 2, mitochondrial (Homo sapiens, UniProt Q15119); assay: Inhibition of human recombinant PDHK2 co-complexed with porcine PDH using sodium pyruvate, coenzymeA and NAD as substrates preincubated with enzyme complex for 45 mins followed by substrates addition and further incubated for 90 mins in presence of ATP at Km concentration by spectrophotometric assay
[3] = target: T2, Branched-chain alpha-ketoacid dehydrogenase kinase (Homo sapiens, UniProt O14874); assay: Inhibition of human recombinant BCKDK incubated for 60 mins in presence of ATP by ADP-Glo reagent based luminescent assay
[4] = target: T2, Branched-chain alpha-ketoacid dehydrogenase kinase; assay: Inhibition of human recombinant BCKDK at >100 uM incubated for 60 mins in presence of ATP by ADP-Glo reagent based luminescent assay relative to control
[5] = target: T1, [Pyruvate dehydrogenase (acetyl-transferring)] kinase isozyme 4, mitochondrial; assay: as §1, with “porcine PDH at 30 uM using sodium” for “porcine PDH using sodium”, “spectrophotometric assay relative to control” for “spectrophotometric assay”; settings: time 135.0 min
Target sequence in this assay (Q16654 whole entry, looked up): as the sequence (Q16654 whole entry) above

[6] = target: [Pyruvate dehydrogenase (acetyl-transferring)] kinase isozyme 1, mitochondrial (Homo sapiens, UniProt Q15118); assay: Inhibition of human recombinant PDHK1 co-complexed with porcine PDH using sodium pyruvate, coenzymeA and NAD as substrates preincubated with enzyme complex for 45 mins followed by substrates addition and further incubated for 90 mins by spectrophotometric assay
Chain of [Pyruvate dehydrogenase (acetyl-transferring)] kinase isozyme 1, mitochondrial (Q15118 whole entry): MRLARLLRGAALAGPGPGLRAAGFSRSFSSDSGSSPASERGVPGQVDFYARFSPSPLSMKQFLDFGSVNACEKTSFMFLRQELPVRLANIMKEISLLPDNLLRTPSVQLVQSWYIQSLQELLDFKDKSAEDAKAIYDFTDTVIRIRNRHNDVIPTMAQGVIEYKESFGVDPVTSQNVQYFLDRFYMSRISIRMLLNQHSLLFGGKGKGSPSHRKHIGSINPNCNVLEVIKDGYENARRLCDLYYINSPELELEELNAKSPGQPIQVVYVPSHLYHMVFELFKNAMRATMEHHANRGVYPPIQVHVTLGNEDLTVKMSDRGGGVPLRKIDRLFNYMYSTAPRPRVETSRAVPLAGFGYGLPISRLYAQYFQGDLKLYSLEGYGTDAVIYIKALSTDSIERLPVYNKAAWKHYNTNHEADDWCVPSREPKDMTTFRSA

IC50 [1] [nM]	IC50 [2] [nM]	IC50 [3] [nM]	inhibition [4] [%]	inhibition [5] [%]	IC50 [6] [nM]	Compound
10300	2410					Cc1nc(N2CCCC2)c2c(n1)[nH]c1c(C3CC3)cccc12
292	91					CCCc1nnc(-c2cc3c(nc2C)[nH]c2c(C4CC4)cccc23)o1
24.1	4.2	> 100000	3			Cc1nc2[nH]c3c(C4CC4)cccc3c2cc1-c1nnc(C(NC(=O)CCc2ccccc2)C(C)C)o1 (stereo not drawn)
8460	758					CCC1CCCN1c1nc(C)nc2[nH]c3c(C4CC4)cccc3c12 (stereo not drawn)
32.9	6	> 100000	18			Cc1nc2[nH]c3c(C4CC4)cccc3c2cc1-c1nnc(C(CC(=O)NCc2ccccc2)C(C)C)o1 (stereo not drawn)
40.6	9.2					CC[C@@H]1C[C@H](c2ccc(C(=O)O)[nH]2)CN1c1nc(C)nc2[nH]c3c(C4CC4)cccc3c12
6620	1490					CCc1nnc(-c2cc3c(nc2C)[nH]c2c(C4CC4)cccc23)s1
462	56					Cc1nc2[nH]c3c(C4CC4)cccc3c2cc1-c1nnc(CC(C)C)o1
260	4.5					Cc1nc(N2C[C@@](Cc3ccccc3)(C(N)=O)C[C@H]2CO)c2c(n1)[nH]c1c(C3CC3)cccc12
2980	1510					Cc1nc2[nH]c3c(C4CC4)cccc3c2cc1-c1ccccn1
> 30000	5510			35		CNC(=O)c1cc2c(nc1C)[nH]c1c(C3CC3)cccc12
2120	190					CCc1nnc(-c2cc3c(nc2C)[nH]c2c(C4CC4)cccc23)o1
350	35					Cc1cnc(Cl)nc1-c1ccc(N(Cc2ccccc2)C(=O)c2ccc(O)cc2O)cc1
7490	5330					Cc1nc2[nH]c3c(C4CC4)cccc3c2cc1-c1ccccc1
7700	1010					Cc1nc(N2C[C@H](c3ccccc3)C[C@H]2CO)c2c(n1)[nH]c1c(C3CC3)cccc12
> 30000	8520			21		Cc1nc(N2CCC[C@@H]2CO)c2c(n1)[nH]c1c(C3CC3)cccc12
592	130					Cc1nc2[nH]c3c(C4CC4)cccc3c2cc1-c1nnc(C(C)C)o1
4530	352					Cc1nc(N2CCC[C@H]2CO)c2c(n1)[nH]c1c(C3CC3)cccc12
1510	490					Cc1nnc(-c2cc3c(nc2C)[nH]c2c(C4CC4)cccc23)o1
61.5	17.1					Cc1nc2[nH]c3c(C4CC4)cccc3c2cc1-c1nnc([C@@H](CC(=O)N[C@H](C)c2ccccc2)C(C)C)o1
17.8	5.5					Cc1nc(N2C[C@@H](c3ccc(C(N)=O)[nH]3)C[C@H]2CO)c2c(n1)[nH]c1c(C3CC3)cccc12
	710	> 300000			5870	Cc1ncc2c(n1)[nH]c1c(C3CC3)cccc12
1540	210					COC(=O)c1cc2c(nc1C)[nH]c1c(C3CC3)cccc12
12.2	5.1					Cc1nc(N2C[C@@H](c3ccc(C(=O)O)[nH]3)C[C@H]2CO)c2c(n1)[nH]c1c(C3CC3)cccc12
1120	73					Cc1nc(N2C[C@H](Cc3ccccc3)C[C@H]2CO)c2c(n1)[nH]c1c(C3CC3)cccc12
494	87					Cc1nc2[nH]c3c(C4CC4)cccc3c2cc1-c1nnc(C(C)C(C)C)o1 (stereo not drawn)
11900	2030					Cc1ccc2c(n1)[nH]c1c(C3CC3)cccc12
292	14.6					Cc1nc(N2C[C@](CO)(Cc3ccccc3)C[C@H]2CO)c2c(n1)[nH]c1c(C3CC3)cccc12
